The target of one data set is muscarinic M2 receptor (Homo sapiens (Human), UniProt P08172). Description: Muscarinic M2 receptor binding assay (assay 1). The following applies: [3H]AF-DX 384 2 nM, Cheng Prusoff. In short, it runs like this:
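Membrane homogenates (60 μg protein) were incubated with 2 nM [3H]AF-DX 384 for 60 min at 22° C in Tris-HCl pH 7.4 with NaCl, KCl, MgCl2 and EDTA; 1 μM atropine defined nonspecific binding. Filtration and scintillation counting gave percent inhibition of specific binding, with Ki by Cheng-Prusoff.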

The test system of another data set is HEL cells. The experiment in a line: Proliferation assay, HEL control cell line (CellTiter-Glo, 7 days). It counts as cell-based, human. Put shortly:
(§1)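 Cells seeded at 125 (MOLM-13), 300 (MV4;11), 75 (OCI-AML3) or 200 (HEL) per well were exposed to 3.16-fold compound dilutions (0.1% DMSO) for 7 days at 37° C. Viability by CellTiter-Glo luminescence, normalized to DMSO (100%) and day-0 plate (0%); IC50 from one-site dose-response fit.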
(In general: In ATP-based viability assays light output follows the ATP content of the culture.)

The nature of data set [1]: Human hepatocyte intrinsic clearance assay. In kind it is in vitro ADME. The following applies: human hepatocytes. In short, it runs like this:
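Pooled 10-donor cryopreserved human hepatocytes in suspension (0.25×10^6 cells in 0.25 mL) incubated with test compound at […], 37° C. Samples taken 0.5–120 min and quenched in acetonitrile, parent remaining measured by LC-MS/MS. CLint ([…]) derived from slope of ln % remaining vs time.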

The next data set deals with OCI-AML3 cells. The experiment in a line: Proliferation assay, OCI-AML3 (CellTiter-Glo, 7 days). The conditions noted are these: Homo sapiens, OCI-AML-3, 168 h. It counts as cell-based, human. In short, it runs like this:
as §1

Read-outs that look alike come from different tables or passages of the source.

We go through eight compounds from patent US20240335431A1, “1-H-PYRROLO[2,3-c]PYRIDINE COMPOUNDS” (Acerta Pharma B.V., priority 2023, published 2024).

muscarinic M2 receptor, sequence (P08172 whole entry): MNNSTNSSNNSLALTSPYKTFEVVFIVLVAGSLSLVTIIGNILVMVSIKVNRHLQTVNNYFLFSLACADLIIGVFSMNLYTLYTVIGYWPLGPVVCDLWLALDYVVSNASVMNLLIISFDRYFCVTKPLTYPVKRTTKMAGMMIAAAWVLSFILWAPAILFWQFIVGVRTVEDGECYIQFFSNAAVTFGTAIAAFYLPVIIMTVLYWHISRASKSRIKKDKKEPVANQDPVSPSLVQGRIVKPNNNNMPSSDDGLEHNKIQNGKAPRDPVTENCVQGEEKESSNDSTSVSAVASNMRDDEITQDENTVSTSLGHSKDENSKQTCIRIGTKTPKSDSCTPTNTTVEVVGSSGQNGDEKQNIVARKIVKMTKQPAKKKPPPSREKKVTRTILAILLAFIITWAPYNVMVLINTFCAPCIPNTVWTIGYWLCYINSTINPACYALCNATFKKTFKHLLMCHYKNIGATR

In the case of `CC(C)N(C(=O)c1cc(F)ccc1-n1cc(C(=O)C2CCN(C(=O)[C@@H]3CCC4(CC4)N3)CC2)c2ccncc21)C(C)C` [Example 24, (S)-2-(3-(1-(4-Azaspiro[2.4]heptane-5-carbonyl)piperidine-4-carbonyl)-1H-pyrrolo[2,3-c]pyridin-1-yl)-5-fluoro-N,N-diisopropylbenzamide], on muscarinic M2 receptor, the Ki (usually the equilibrium dissociation constant of an inhibitor or competing ligand from its target) stood at 1200 nM. In addition, the IC50 (as a rule, the concentration that inhibits the measured activity by half) in the data set on HEL cells (Homo sapiens, HEL, 168 h) is above 10000 nM; in the data set with OCI-AML3 cells, 21 nM. Further, the “HH CLint” value in data set [1] was determined as 4.1 μl/min/1E6.
At muscarinic M2 receptor, `CC(C)N(C(=O)c1cc(F)ccc1-n1cc(C(=O)C2CCN(C(=O)[C@H]3N[C@@H]4CC[C@H]3C4)CC2)c2ccncc21)C(C)C` [Example 16, 2-(3-(1-((1R,3S,4S)-2-Azabicyclo[2.2.1]heptane-3-carbonyl)piperidine-4-carbonyl)-1H-pyrrolo[2,3-c]pyridin-1-yl)-5-fluoro-N,N-diisopropylbenzamide] registered an inhibition constant (Ki) of 200 nM. The half-inhibitory concentration (IC50) with HEL cells (Homo sapiens, HEL, 168 h) is above 10000 nM; in the data set on OCI-AML3 cells, 51 nM. The “HH CLint” value in data set [1] is reported as below 1.0 μl/min/1E6.
As to `CC(C)(F)c1ncccc1-c1cc(F)ccc1-n1cc(C(=O)C2CN(C(=O)[C@H]3N[C@@H]4CC[C@H]3C4)C2)c2ccncc21` [Example 13, (1-((1R,3S,4S)-2-Azabicyclo[2.2.1]heptane-3-carbonyl)azetidin-3-yl)(1-(4-fluoro-2-(2-(2-fluoropropan-2-yl)pyridin-3-yl)phenyl)-1H-pyrrolo[2,3-c]pyridin-3-yl)methanone], on muscarinic M2 receptor, the Ki worked out at 9700 nM. Besides, the IC50 is above 10000 nM with HEL cells (Homo sapiens, HEL, 168 h) and 37 nM in the data set with OCI-AML3 cells.
Turning to `Cc1c(C(=O)C2CCN(C(=O)[C@H]3NC[C@@H]4C[C@@H]43)CC2)c2ccncc2n1-c1ccc(F)cc1C(=O)N(CC(F)(F)F)C(C)C` (single isomer, unassigned) [Example 51-2], at muscarinic M2 receptor, affinity was put at a Ki of 30700 nM. Further, the 50% inhibitory concentration (IC50) with HEL cells was above 10000 nM; in the data set on OCI-AML3 cells, 37 nM. In data set [1], the “HH CLint” value was found to be 1.9 μl/min/1E6.
`Cc1c(C(=O)C2CCN(C(=O)[C@H]3NC[C@@H]4C[C@@H]43)CC2)c2ccncc2n1-c1ccc(F)cc1C(=O)N(C(C)C)[C@H](C)C(F)(F)F` (single isomer, unassigned) [Example 57-1] yielded an inhibition constant Ki on muscarinic M2 receptor above 100000 nM. Also, the IC50 in the data set with HEL cells (Homo sapiens, HEL, 168 h) is above 10000 nM; with OCI-AML3 cells it was 77 nM. Besides, in data set [1], the “HH CLint” value was found to be 3.2 μl/min/1E6.
In turn, `CCN(C(=O)c1cc(F)ccc1-n1cc(C(=O)C2CN(C(=O)[C@H]3N[C@@H]4CC[C@H]3C4)C2)c2ccncc21)C(C)C` [Example 8, 2-(3-(1-((1R,3S,4S)-2-Azabicyclo[2.2.1]heptane-3-carbonyl)azetidine-3-carbonyl)-1H-pyrrolo[2,3-c]pyridin-1-yl)-N-ethyl-5-fluoro-N-isopropylbenzamide] returned a Ki on muscarinic M2 receptor of 8000 nM. Besides, the 50% inhibitory concentration (IC50) in the data set on HEL cells (Homo sapiens, HEL, 168 h) was above 10000 nM; with OCI-AML3 cells it was 193 nM.
The like results for `CC(C)N(C(=O)c1cc(F)ccc1-n1cc(C(=O)C2CCN(C(=O)[C@H]3N[C@@H]4CC[C@H]3C4)CC2)c2c(F)cncc21)C(C)C.O=CO` [Example 44, 2-(3-(1-((1R,3S,4S)-2-Azabicyclo[2.2.1]heptane-3-carbonyl)piperidine-4-carbonyl)-4-fluoro-1H-pyrrolo[2,3-c]pyridin-1-yl)-5-fluoro-N,N-diisopropylbenzamide 1·formic acid] were, in that order, 2800 nM, above 10000 nM and 117 nM.
The like results for `C[C@@H]1CCC[C@H](C)N1C(=O)c1cc(F)ccc1-n1cc(C(=O)C2CCN(C(=O)[C@H]3N[C@@H]4CC[C@H]3C4)CC2)c2ccncc21` [Example 33, (1-((1R,3S,4S)-2-Azabicyclo[2.2.1]heptane-3-carbonyl)piperidin-4-yl)(1-(2-((2R,6S)-2,6-dimethylpiperidine-1-carbonyl)-4-fluorophenyl)-1H-pyrrolo[2,3-c]pyridin-3-yl)methanone] were, in that order, 300 nM, above 10000 nM and 207 nM.
